Source: PMC9573696, “Experimental Examination of Solubility and Lipophilicity as Pharmaceutically Relevant Points of Novel Bioactive Hybrid Compounds” (Molecules, 2022)
Converted amounts (≈) assume the structure as drawn. Each block holds one compound with its values, some of them ahead of it.

Assays:
[1] = Apparent thermodynamic functions of dissolution (van't Hoff); assay type: physicochemical; conditions: Thm = 302.98 K
From the text: The dissolution of the new hybrids was characterized based on apparent thermodynamic parameters obtained from temperature dependences of solubility of the studied compounds in the selected solvents (Figure 6). […] The van’t Hoff enthalpy of dissolution can be expressed as the inclination of a tangent to a solubility curve plotted as lnx vs. (1/T − 1/Thm) by Equation (6): (6) ΔHsolo=−R(∂lnx/∂(1/T−1/Thm))=−R⋅slope where R = 8.314 J⋅K^−1·mol^−1 is the universal gas constant. Thm = 302.98 K denotes the mean harmonic temperature, which was calculated by Equation (7):(7) Thm=n/∑i=1n1/Ti where n represented the number of experimental temperatures. The apparent standard Gibbs energy was evaluated by Equation (8):(8) ΔGsolo=−RThm×intersept
The apparent standard solution entropies were obtained from the well-known relationship:(9) ΔSsolo=ΔHsolo−ΔGsolo/Thm
The calculated apparent thermodynamic solubility functions of dissolution (Gibbs energy, enthalpy, and entropy) at standard temperature 298.15 K for hybrid compounds were collected in Table 4.

[2] = Equilibrium (thermodynamic) solubility, shake-flask method; assay type: physicochemical; conditions: for Solubility S × 10^3 / Solubility x × 10^3 / Solubility x × 10^5 / Solubility S × 10^4 / Solubility x × 10^6 / Solubility x × 10^4: amorphous state; for solubility at 2 days: 25 °C, organic solvent or mixture, thermodynamic from solid, 1-octanol, text values match 298.15 K, read-out: Solubility S in the alcohol (1-octanol); for Solubility S × 10^4 / Solubility x × 10^6: Buffer pH 7.4
From the text: The experimental solubility values of hybrids in the selected solvents within the temperature range of 293.15–313.15 K expressed in molarity are summarized in Table 2. The comparative analysis of the reference values of the solubility of compounds I–III at the standard temperature of 298.15 K is given as a histogram in Figure 3.
Shake-flask method as “gold standard” was used for determination thermodynamic solubility synthesized compounds in buffer solutions (pH 2.0 and 7.4) and 1-octanol in the temperature range of 293.15–313.15 K with a step of 5 degrees at atmospheric pressure. Excessive amounts of compound were added to glass vials c 12 mL of selected solvent. The heterogeneous system is closed with a lid and vigorously stirred at the selected temperature in an air thermostat with a stirring device until the solubility equilibrium has been reached. The time required for establishing a constant value of the solution concentration was determined from the solubility kinetic dependences and averaged 2 days. The equilibrated solutions were first survived to aim sedimentation of solid phase during 10 h, then centrifuged at 20,000 rpm for 30 min at specific temperatures, and then quickly filtered using a syringe equipped with a hydrophilic filter Millex-GV 0.22 µm (Ireland). Concentration of saturated solution was measured using spectrophotometer Cary-50 (Varian, USA) with an accuracy of 2–4%. The absorbances of compounds studied were measured at wavelengths 332 and 334 nm in buffer solutions and 1-octanol, respectively. If necessary, an aliquot was diluted with an appropriate solvent. The final pH of the saturated buffers was monitored. The solubility of compounds in each solvent was determined by repeating the procedure three times.
Mole fraction concentration was calculated from solubility value S expressed in mol∙L^−1 using Equation (10):(10) x=M2S/S(M2−M1)+1000ρ, where M1 and M2 are the molar masses of solute and solvent, respectively, and ρ (g∙cm^−3) is the density of the pure solvents. The mole fraction solubilities for buffer solutions were calculated taking into account the buffer compositions. The used values of densities are given in Table S6 in Supplementary Material.

Structure (SMILES): Cc1ccc(-n2c(=S)sc3c(=O)n(CCCN4CCN(CC(O)(Cn5cncn5)c5ccc(F)cc5F)CC4)cnc32)cc1 (centres unmarked) [I, 6-[3-[4-[2-(2,4-difluorophenyl)-2-hydroxy-3-(1H-1,2,4-triazol-1-yl)propyl]-1-piperazinyl]propyl]-2,3-dihydro-3-(4-methylphenyl)-2-thioxo-thiazolo[4,5-d]pyrimidin-7(6H)-one]
TΔSsolo ([1]; 1-Octanol): -1.48 kcal/mol
ΔGsolo ([1]; 1-Octanol): 4.02 ± 0.048 kcal/mol
ΔHsolo ([1]; 1-Octanol): 2.53 ± 0.048 kcal/mol
ΔSsolo ([1]; 1-Octanol): −20.8 ± 1.1 J·mol^−1·K^−1
TΔSsolo ([1]; Buffer pH 2.0): -3.23 kcal/mol
ΔGsolo ([1]; Buffer pH 2.0): 6.07 ± 0.12 kcal/mol
ΔHsolo ([1]; Buffer pH 2.0): 2.84 ± 0.024 kcal/mol
ΔSsolo ([1]; Buffer pH 2.0): −45.2 ± 2.4 J·mol^−1·K^−1
TΔSsolo ([1]; Buffer pH 7.4): -4.54 kcal/mol
ΔGsolo ([1]; Buffer pH 7.4): 7.7 ± 0.14 kcal/mol
ΔHsolo ([1]; Buffer pH 7.4): 3.15 ± 0.024 kcal/mol
ΔSsolo ([1]; Buffer pH 7.4): −63.6 ± 4.1 J·mol^−1·K^−1
Solubility S × 10^3 ([2]; 1-Octanol, 293.15 K): 7.0781 mol∙L^−1 (printed as S × 10^3)
Solubility x × 10^3 ([2]; 1-Octanol, 293.15 K): 1.1199 mol. frac. (printed as x × 10^
Solubility S × 10^3 ([2]; 1-Octanol, 298.15 K): 7.5389 mol∙L^−1 (printed as S × 10^3)
Solubility x × 10^3 ([2]; 1-Octanol, 298.15 K): 1.1981 mol. frac. (printed as x × 10^
Solubility S × 10^3 ([2]; 1-Octanol, 303.15 K): 8.0826 mol∙L^−1 (printed as S × 10^3)
Solubility x × 10^3 ([2]; 1-Octanol, 303.15 K): 1.2903 mol. frac. (printed as x × 10^
Solubility S × 10^3 ([2]; 1-Octanol, 308.15 K): 8.6264 mol∙L^−1 (printed as S × 10^3)
Solubility x × 10^3 ([2]; 1-Octanol, 308.15 K): 1.3835 mol. frac. (printed as x × 10^
Solubility S × 10^3 ([2]; 1-Octanol, 313.15 K): 9.2070 mol∙L^−1 (printed as S × 10^3)
Solubility x × 10^3 ([2]; 1-Octanol, 313.15 K): 1.4834 mol. frac. (printed as x × 10^
solubility at 2 days [2]: 7.54 mM (≈ 4820 µg/mL)
Solubility S × 10^3 ([2]; Buffer pH 2.0, 293.15 K): 1.8307 mol∙L^−1 (printed as S × 10^3)
Solubility x × 10^5 ([2]; Buffer pH 2.0, 293.15 K): 3.3040 mol. frac. (printed as x × 10^
Solubility S × 10^3 ([2]; Buffer pH 2.0, 298.15 K): 1.9773 mol∙L^−1 (printed as S × 10^3)
Solubility x × 10^5 ([2]; Buffer pH 2.0, 298.15 K): 3.5732 mol. frac. (printed as x × 10^
Solubility S × 10^3 ([2]; Buffer pH 2.0, 303.15 K): 2.1311 mol∙L^−1 (printed as S × 10^3)
Solubility x × 10^5 ([2]; Buffer pH 2.0, 303.15 K): 3.8570 mol. frac. (printed as x × 10^
Solubility S × 10^3 ([2]; Buffer pH 2.0, 308.15 K): 2.3027 mol∙L^−1 (printed as S × 10^3)
Solubility x × 10^5 ([2]; Buffer pH 2.0, 308.15 K): 4.1749 mol. frac. (printed as x × 10^
Solubility S × 10^3 ([2]; Buffer pH 2.0, 313.15 K): 2.4851 mol∙L^−1 (printed as S × 10^3)
Solubility x × 10^5 ([2]; Buffer pH 2.0, 313.15 K): 4.5144 mol. frac. (printed as x × 10^
Solubility S × 10^4 ([2]; 293.15 K): 1.1295 mol∙L^−1 (printed as S × 10^4)
Solubility x × 10^6 ([2]; 293.15 K): 2.0541 mol. frac. (printed as x × 10^
Solubility S × 10^4 ([2]; 298.15 K): 1.2441 mol∙L^−1 (printed as S × 10^4)
Solubility x × 10^6 ([2]; 298.15 K): 2.2653 mol. frac. (printed as x × 10^
Solubility S × 10^4 ([2]; 303.15 K): 1.3510 mol∙L^−1 (printed as S × 10^4)
Solubility x × 10^6 ([2]; 303.15 K): 2.4636 mol. frac. (printed as x × 10^
Solubility S × 10^4 ([2]; 308.15 K): 1.4682 mol∙L^−1 (printed as S × 10^4)
Solubility x × 10^6 ([2]; 308.15 K): 2.6820 mol. frac. (printed as x × 10^
Solubility S × 10^4 ([2]; 313.15 K): 1.5920 mol∙L^−1 (printed as S × 10^4)
Solubility x × 10^6 ([2]; 313.15 K): 2.9135 mol. frac. (printed as x × 10^

TΔSsolo ([1]; 1-Octanol): -2.49 kcal/mol
ΔGsolo ([1]; 1-Octanol): 4.16 ± 0.072 kcal/mol
ΔHsolo ([1]; 1-Octanol): 1.65 ± 0.024 kcal/mol
ΔSsolo ([1]; 1-Octanol): −35.1 ± 1.8 J·mol^−1·K^−1
TΔSsolo ([1]; Buffer pH 2.0): -1.36 kcal/mol
ΔGsolo ([1]; Buffer pH 2.0): 6.36 ± 0.12 kcal/mol
ΔHsolo ([1]; Buffer pH 2.0): 5 ± 0.048 kcal/mol
ΔSsolo ([1]; Buffer pH 2.0): −19.1 ± 1.1 J·mol^−1·K^−1
TΔSsolo ([1]; Buffer pH 7.4): -5.09 kcal/mol
ΔGsolo ([1]; Buffer pH 7.4): 7.15 ± 0.14 kcal/mol
ΔHsolo ([1]; Buffer pH 7.4): 2.03 ± 0.024 kcal/mol
ΔSsolo ([1]; Buffer pH 7.4): −71.4 ± 4.2 J·mol^−1·K^−1
Solubility S × 10^3 ([2]; 1-Octanol, 293.15 K): 5.3994 mol∙L^−1 (printed as S × 10^3)
Solubility x × 10^4 ([2]; 1-Octanol, 293.15 K): 8.5358 mol. frac. (printed as x × 10^
Solubility S × 10^3 ([2]; 1-Octanol, 298.15 K): 5.6703 mol∙L^−1 (printed as S × 10^3)
Solubility x × 10^4 ([2]; 1-Octanol, 298.15 K): 9.0027 mol. frac. (printed as x × 10^
Solubility S × 10^3 ([2]; 1-Octanol, 303.15 K): 5.8834 mol∙L^−1 (printed as S × 10^3)
Solubility x × 10^4 ([2]; 1-Octanol, 303.15 K): 9.3813 mol. frac. (printed as x × 10^
Solubility S × 10^3 ([2]; 1-Octanol, 308.15 K): 6.1187 mol∙L^−1 (printed as S × 10^3)
Solubility x × 10^4 ([2]; 1-Octanol, 308.15 K): 9.8001 mol. frac. (printed as x × 10^
Solubility S × 10^3 ([2]; 1-Octanol, 313.15 K): 6.3807 mol∙L^−1 (printed as S × 10^3)
Solubility x × 10^4 ([2]; 1-Octanol, 313.15 K): 10.2644 mol. frac. (printed as x × 10^
solubility at 2 days [2]: 5.67 mM (≈ 3640 µg/mL)
Solubility S × 10^3 ([2]; Buffer pH 2.0, 293.15 K): 1.0755 mol∙L^−1 (printed as S × 10^3)
Solubility x × 10^5 ([2]; Buffer pH 2.0, 293.15 K): 1.9402 mol. frac. (printed as x × 10^
Solubility S × 10^3 ([2]; Buffer pH 2.0, 298.15 K): 1.2330 mol∙L^−1 (printed as S × 10^3)
Solubility x × 10^5 ([2]; Buffer pH 2.0, 298.15 K): 2.2272 mol. frac. (printed as x × 10^
Solubility S × 10^3 ([2]; Buffer pH 2.0, 303.15 K): 1.4273 mol∙L^−1 (printed as S × 10^3)
Solubility x × 10^5 ([2]; Buffer pH 2.0, 303.15 K): 2.5822 mol. frac. (printed as x × 10^
Solubility S × 10^3 ([2]; Buffer pH 2.0, 308.15 K): 1.6250 mol∙L^−1 (printed as S × 10^3)
Solubility x × 10^5 ([2]; Buffer pH 2.0, 308.15 K): 2.9451 mol. frac. (printed as x × 10^
Solubility S × 10^3 ([2]; Buffer pH 2.0, 313.15 K): 1.8394 mol∙L^−1 (printed as S × 10^3)
Solubility x × 10^5 ([2]; Buffer pH 2.0, 313.15 K): 3.3404 mol. frac. (printed as x × 10^
Solubility S × 10^4 ([2]; 293.15 K): 3.0126 mol∙L^−1 (printed as S × 10^4)
Solubility x × 10^6 ([2]; 293.15 K): 5.4794 mol. frac. (printed as x × 10^
Solubility S × 10^4 ([2]; 298.15 K): 3.1917 mol∙L^−1 (printed as S × 10^4)
Solubility x × 10^6 ([2]; 298.15 K): 5.8122 mol. frac. (printed as x × 10^
Solubility S × 10^4 ([2]; 303.15 K): 3.3788 mol∙L^−1 (printed as S × 10^4)
Solubility x × 10^6 ([2]; 303.15 K): 6.1623 mol. frac. (printed as x × 10^
Solubility S × 10^4 ([2]; 308.15 K): 3.5539 mol∙L^−1 (printed as S × 10^4)
Solubility x × 10^6 ([2]; 308.15 K): 6.4929 mol. frac. (printed as x × 10^
Solubility S × 10^4 ([2]; 313.15 K): 3.7469 mol∙L^−1 (printed as S × 10^4)
Solubility x × 10^6 ([2]; 313.15 K): 6.8581 mol. frac. (printed as x × 10^
Structure (SMILES): O=c1c2sc(=S)n(-c3ccc(F)cc3)c2ncn1CCCN1CCN(CC(O)(Cn2cncn2)c2ccc(F)cc2F)CC1 (centres unmarked) [II, 6-[3-[4-[2-(2,4-difluorophenyl)-2-hydroxy-3-(1H-1,2,4-triazol-1-yl)propyl]-1-piperazinyl]propyl]-2,3-dihydro-3-(4-fluorophenyl)-2-thioxo-thiazolo[4,5-d]pyrimidin-7(6H)-one]
